Some test systems named below: IGROV1 ovarian; HOP-62 NSCLC; ACHN renal; CAKI-1 renal; HCT-116 colon; A498 renal; SK-OV-3 ovarian; NCI-H522 lung; MCF7 breast.
Assay in all cases: NCI-60 cell line screen, 48 h

Each structure is given as a SMILES string.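 Interpolation was linear, between the two tested concentrations surrounding the appropriate level; five concentrations were tested over 48 hours in 96-well plates. GI50 marks 50% less growth. Definition used: TGI = concentration required for complete inhibition of growth.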

Take `CCc1ccc(Nc2ccc([N+](=O)[O-])cc2[N+](=O)[O-])cc1`: the TGI with IGROV1 ovarian was more than 100 µM; in the experiment with HOP-62 NSCLC it was more than 100 µM; in the experiment with ACHN renal, more than 100 µM; in the experiment on CAKI-1 renal, more than 100 µM; with HCT-116 colon it was more than 100 µM; in the experiment with A498 renal, 66.9 µM. This compound also returned a TGI with SK-OV-3 ovarian of more than 100 µM.

For `CN(C)C(c1ccccc1)C(O)c1ccccc1` (stereo not given), the TGI with IGROV1 ovarian, in the experiment with HOP-62 NSCLC, in the experiment with ACHN renal, in the experiment with CAKI-1 renal, with NCI-H522 lung and in the experiment on A498 renal was more than 100 µM in each case. This compound showed a TGI in the experiment with SK-OV-3 ovarian of more than 100 µM.

In the case of `CCCCOC(=O)NC(=O)c1cn(C2CCCCC2)c(=O)[nH]c1=O`, the TGI in the experiment with IGROV1 ovarian is more than 100 µM; in the experiment on HOP-62 NSCLC, 65.9 µM; in the experiment on ACHN renal, 67.3 µM; in the experiment on NCI-H522 lung it was more than 100 µM; in the experiment on HCT-116 colon it was 50.1 µM; with A498 renal it was 49 µM. The compound also returned a TGI in the experiment on SK-OV-3 ovarian of 41.4 µM.

For `COc1ccc(/C=C\c2cc(OC)c(OC)c(OC)c2)cc1OC(=O)NCCN(C)C`, the GI50 in the experiment with IGROV1 ovarian was 0.00139 µM. Besides, the TGI with IGROV1 ovarian is more than 100 µM; with MCF7 breast it was more than 100 µM; in the experiment on HOP-62 NSCLC, more than 100 µM; with ACHN renal it was more than 41.7 µM; in the experiment on CAKI-1 renal it was more than 100 µM; in the experiment with NCI-H522 lung, 0.000483 µM. Besides, the TGI in the experiment with A498 renal stood at 0.0303 µM.

`COc1ncc(-c2ccc3ncnc(Nc4cccc(Cl)c4)c3c2)cc1NS(=O)(=O)CCN1CCOCC1`: the GI50 with CAKI-1 renal was 0.345 µM; with NCI-H522 lung it was 0.402 µM; with HCT-116 colon, 1.49 µM. For the same compound, the TGI in the experiment with CAKI-1 renal is more than 100 µM; in the experiment with NCI-H522 lung it was 8.6 µM; with HCT-116 colon, more than 100 µM.

With `COc1ccc2nc3cc(Cl)ccc3c(NCCN)c2c1`, the GI50 in the experiment with HOP-62 NSCLC was 1.58 µM; in the experiment on ACHN renal, 1.58 µM; in the experiment with CAKI-1 renal, 1.65 µM; with NCI-H522 lung, 1.73 µM; in the experiment with A498 renal, 11.7 µM; in the experiment on SK-OV-3 ovarian, 1.81 µM. Moreover, the TGI with HOP-62 NSCLC was 3.03 µM; with ACHN renal, 3.17 µM; in the experiment with CAKI-1 renal it was 3.06 µM; in the experiment on NCI-H522 lung, 3.56 µM; in the experiment on A498 renal, 23.9 µM; in the experiment on SK-OV-3 ovarian, 3.26 µM.

As to `COC(C(O)c1ccc2c(c1)OCO2)P(=O)(c1ccccc1)c1ccccc1` (stereo not given), the TGI in the experiment on IGROV1 ovarian, in the experiment on HOP-62 NSCLC, in the experiment on ACHN renal, with CAKI-1 renal, with NCI-H522 lung and in the experiment on HCT-116 colon was more than 100 µM each time. Moreover, the TGI with A498 renal is more than 100 µM.

`c1cc[c]([Pb]([c]2ccccc2)[c]2ccccc2)cc1`: the GI50 with IGROV1 ovarian was 10 µM; in the experiment with HOP-62 NSCLC, 36.9 µM; in the experiment on ACHN renal, 33.4 µM; in the experiment with CAKI-1 renal, 30 µM; in the experiment with NCI-H522 lung it was 2.53 µM; with HCT-116 colon, 10.5 µM. For the same compound, the GI50 in the experiment with A498 renal was 16 µM; in the experiment on SK-OV-3 ovarian it was 11.2 µM. In addition, the TGI in the experiment with IGROV1 ovarian is 32 µM; in the experiment on HOP-62 NSCLC, 79.3 µM; in the experiment with ACHN renal, more than 100 µM; with CAKI-1 renal, more than 100 µM; in the experiment on NCI-H522 lung, 15.1 µM; in the experiment on HCT-116 colon, 27.1 µM. Moreover, the TGI in the experiment on A498 renal stood at 46.2 µM; in the experiment with SK-OV-3 ovarian it was 38.2 µM.

On to `FC(F)(F)c1nc(-c2ccccc2)oc1Sc1nnc(Sc2oc(-c3ccccc3)nc2C(F)(F)F)s1`, for which the TGI is 49.3 µM in the experiment with IGROV1 ovarian; more than 100 µM with HOP-62 NSCLC; more than 100 µM in the experiment with ACHN renal; more than 78.7 µM with CAKI-1 renal; 36.8 µM in the experiment with NCI-H522 lung; more than 100 µM with HCT-116 colon. The TGI in the experiment on A498 renal and in the experiment with SK-OV-3 ovarian was more than 100 µM throughout.

For `O=C(/C=C/c1c(O)ccc2ccccc12)c1ccccc1`, the TGI in the experiment with IGROV1 ovarian, with HOP-62 NSCLC, in the experiment on ACHN renal, with CAKI-1 renal, with NCI-H522 lung and in the experiment on HCT-116 colon was more than 100 µM each time. Besides, the TGI in the experiment with A498 renal and in the experiment on SK-OV-3 ovarian was more than 100 µM each time.

As for `Cc1[nH]c2ccccc2c1C1Cc2ccccc2N1C(=O)/C(Cl)=C/c1ccccc1` (stereo not given), the TGI in the experiment on IGROV1 ovarian, with HOP-62 NSCLC, with ACHN renal, in the experiment on CAKI-1 renal, in the experiment with NCI-H522 lung and with HCT-116 colon was more than 100 µM in each case. For the same compound, the TGI in the experiment on A498 renal and in the experiment on SK-OV-3 ovarian was more than 100 µM throughout.

Regarding `CCOc1ccc2c(c1)[n+]([O-])c(-c1nc3ccccc3s1)c(N)[n+]2[O-]`, the TGI is more than 100 µM with IGROV1 ovarian; more than 100 µM in the experiment on HOP-62 NSCLC; more than 100 µM in the experiment with ACHN renal; more than 100 µM in the experiment on CAKI-1 renal; 63.3 µM in the experiment with NCI-H522 lung; more than 100 µM with A498 renal. The TGI in the experiment with SK-OV-3 ovarian is more than 100 µM.

Take `CCC(=O)c1c(C(F)(F)F)n([O-])c2ccc(C)cc2[n+]1=O`: the GI50 with MCF7 breast was 6.29 µM; in the experiment on HOP-62 NSCLC, 11.3 µM; with ACHN renal it was 5.02 µM; with CAKI-1 renal, 5.78 µM; with NCI-H522 lung it was 1.62 µM; in the experiment with HCT-116 colon, 13.8 µM. In addition, the GI50 in the experiment with SK-OV-3 ovarian is 8.45 µM. In addition, the TGI was 40.5 µM in the experiment with MCF7 breast; more than 50 µM in the experiment with HOP-62 NSCLC; 14.2 µM in the experiment on ACHN renal; 16.2 µM in the experiment on CAKI-1 renal; 11.2 µM with NCI-H522 lung; more than 50 µM in the experiment with HCT-116 colon. Also, the TGI with SK-OV-3 ovarian amounted to 49.3 µM.

As to `N#C/C(=C\c1cc2ccccc2c2ccccc12)c1ccccc1`, the TGI is more than 51.8 µM in the experiment on IGROV1 ovarian; 17.6 µM with HOP-62 NSCLC; more than 83.5 µM with ACHN renal; more than 37.8 µM with CAKI-1 renal; more than 29.9 µM with NCI-H522 lung; 18.2 µM with HCT-116 colon. Moreover, the TGI turned out to be 38.3 µM in the experiment with A498 renal and 39 µM with SK-OV-3 ovarian.

Regarding `COc1ccc(/C(Cl)=C(\C=O)c2ccc([N+](=O)[O-])cc2)cc1`, the TGI is 53.3 µM with IGROV1 ovarian; 52.8 µM with HOP-62 NSCLC; 70.5 µM in the experiment with ACHN renal; 33.8 µM in the experiment on CAKI-1 renal; more than 46.8 µM with NCI-H522 lung; 74.1 µM in the experiment on A498 renal. In addition, in the experiment on SK-OV-3 ovarian, the TGI was determined as 76.7 µM.

The record behind these values is PubChem BioAssay (NCI).
